For assay [1], the system named is NIH3T3. The experiment in a line: cells. To be noted: Mus musculus.
Description: Selective inhibition of serum stimulated growth of NIH3T3neu isogenic cells
For assay [2], the target named is Epidermal growth factor receptor (Homo sapiens, UniProt P00533). In words: In vitro inhibition of Epidermal growth factor receptor tyrosine kinase isolated from A431 (human carcinoma).
Assay [3] concerns NIH3T3. The experiment in a line: cells. To be noted: Mus musculus. The source holds these as a separate data set.
Description: Selective inhibition of serum stimulated growth of NIH3T3 isogenic cells
A further assay relates to A-431. In words: In vitro inhibition of A431 (human carcinoma) cell basal growth. It is filed as functional, cell-based.

20 molecules from ChEMBL document CHEMBL1145114, “The combi-targeting concept: chemical dissection of the dual targeting properties of a series of "combi-triazenes"” (J Med Chem, 2003) can be followed below.

In general, IC50 refers to the midpoint of a concentration-inhibition curve.

Epidermal growth factor receptor, sequence (P00533 whole entry): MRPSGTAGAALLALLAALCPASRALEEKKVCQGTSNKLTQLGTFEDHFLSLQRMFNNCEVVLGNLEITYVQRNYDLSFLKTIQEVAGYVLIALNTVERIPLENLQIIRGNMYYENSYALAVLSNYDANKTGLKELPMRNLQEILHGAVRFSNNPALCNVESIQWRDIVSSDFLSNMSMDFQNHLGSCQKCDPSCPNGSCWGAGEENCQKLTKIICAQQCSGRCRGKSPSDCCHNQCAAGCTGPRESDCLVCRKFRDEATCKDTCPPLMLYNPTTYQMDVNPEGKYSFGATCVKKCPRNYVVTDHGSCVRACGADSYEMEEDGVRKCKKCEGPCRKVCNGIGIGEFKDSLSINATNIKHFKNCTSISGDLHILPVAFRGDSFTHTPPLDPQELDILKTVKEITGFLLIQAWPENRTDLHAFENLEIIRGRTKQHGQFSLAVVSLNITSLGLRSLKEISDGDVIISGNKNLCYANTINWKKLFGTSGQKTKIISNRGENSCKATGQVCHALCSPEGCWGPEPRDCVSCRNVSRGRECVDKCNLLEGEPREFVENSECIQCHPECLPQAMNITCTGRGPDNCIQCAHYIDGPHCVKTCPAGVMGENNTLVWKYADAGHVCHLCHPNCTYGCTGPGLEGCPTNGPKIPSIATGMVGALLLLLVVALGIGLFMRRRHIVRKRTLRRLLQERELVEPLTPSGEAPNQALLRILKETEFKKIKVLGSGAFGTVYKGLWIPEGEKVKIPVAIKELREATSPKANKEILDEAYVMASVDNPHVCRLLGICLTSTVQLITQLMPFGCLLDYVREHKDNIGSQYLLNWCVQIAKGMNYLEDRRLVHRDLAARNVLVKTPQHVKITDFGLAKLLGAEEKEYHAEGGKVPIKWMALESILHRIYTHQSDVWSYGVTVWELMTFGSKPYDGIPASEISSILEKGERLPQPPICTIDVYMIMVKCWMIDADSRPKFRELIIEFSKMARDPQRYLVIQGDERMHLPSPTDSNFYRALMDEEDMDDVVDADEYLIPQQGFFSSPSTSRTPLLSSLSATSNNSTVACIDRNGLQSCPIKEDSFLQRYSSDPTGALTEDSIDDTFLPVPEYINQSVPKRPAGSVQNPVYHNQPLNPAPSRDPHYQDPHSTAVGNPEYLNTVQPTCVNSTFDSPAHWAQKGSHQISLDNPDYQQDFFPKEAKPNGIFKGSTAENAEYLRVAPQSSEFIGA

Consider `Cc1cccc(Nc2ncnc3ccc(/N=N/N(C)C)cc23)c1`, for which the concentration for half-maximal inhibition (IC50) with NIH3T3 [1] is 6.94 µM; in assay [2], 0.024 µM; in the assay on NIH3T3 [3], 50.8 µM; with A-431, 94 µM.

Turning to `C/N=N/Nc1ccc2ncnc(Nc3cccc(Cl)c3)c2c1`, the IC50 with NIH3T3 [1] came to 4.16 µM; in the assay on NIH3T3 [3], 32.1 µM; in the assay on A-431, 16.7 µM.

For `CN(C)/N=N/c1ccc2ncnc(Nc3cccc(Br)c3)c2c1`, the IC50 in the assay on NIH3T3 [1] came out at 3.74 µM; in assay [2], 0.011 µM; with NIH3T3 [3], 52.5 µM; with A-431, 100 µM.

For `CN=NNc1ccc2ncnc(N(C)c3ccccc3)c2c1`, the IC50 is 81 µM in the assay with NIH3T3 [1], 8 µM in assay [2], 30.5 µM in the assay on NIH3T3 [3] and 89.5 µM with A-431.

With `CN(C)/N=N/c1ccc2ncnc(Nc3cccc(Cl)c3)c2c1`, the concentration for half-maximal inhibition (IC50) with NIH3T3 [1] was determined as 3.09 µM; in assay [2] it was 0.014 µM; in the assay on NIH3T3 [3], 60.4 µM; with A-431, 100 µM.

`CN(c1ccccc1)c1ncnc2ccc(N)cc12`: the IC50 with NIH3T3 [1] was found to be 99.4 µM; in assay [2], 8.4 µM; in the assay with NIH3T3 [3] it was 71.4 µM; with A-431 it was 116 µM.

As to `COCC/N=N/Nc1ccc2ncnc(Nc3cccc(Br)c3)c2c1`, the results for the IC50 in the assay on NIH3T3 [1], with NIH3T3 [3] and in the assay on A-431 were 2.98 µM, 42.9 µM and 40 µM, respectively.

For `CN(C)/N=N/c1ccc2ncnc(NCc3ccccc3)c2c1`, the concentration for half-maximal inhibition (IC50) turned out to be 33.9 µM in the assay on NIH3T3 [1], 0.482 µM in assay [2], 67.3 µM in the assay with NIH3T3 [3] and 50.3 µM with A-431.

On to `C/N=N/Nc1ccc2ncnc(Nc3cccc(C)c3)c2c1`, for which the figures for the IC50 in the assay with NIH3T3 [1], in the assay on NIH3T3 [3] and in the assay with A-431 were 9.69 µM, 68.3 µM and 23.2 µM, respectively.

With `Brc1cccc(Nc2ncnc3ccc(N/N=N/CCN4CCOCC4)cc23)c1`, the IC50 in the assay with NIH3T3 [1] worked out at 2.92 µM; in assay [2], 0.064 µM; in the assay with NIH3T3 [3] it was 22.2 µM; in the assay with A-431, 33 µM.

With `CN(C)CCN=NNc1ccc2ncnc(Nc3cccc(Br)c3)c2c1`, the half-maximal inhibitory concentration (IC50) in the assay on NIH3T3 [1] amounted to 3.4 µM; in assay [2] it was 0.038 µM; with NIH3T3 [3], 16.7 µM; in the assay on A-431, 12.4 µM.

As to `C/N=N/Nc1ccc2ncnc(Nc3cccc(Br)c3)c2c1`, the results for the concentration for half-maximal inhibition (IC50) with NIH3T3 [1], in the assay with NIH3T3 [3] and with A-431 were 4.32 µM, 33 µM and 16 µM, respectively.

Take `CN(c1ccccc1)c1ncnc2ccc(NN=NCc3ccccn3)cc12`: the IC50 in the assay on NIH3T3 [1] worked out at 64.1 µM; in assay [2], 9.3 µM; with NIH3T3 [3], 39.4 µM; with A-431, 25.1 µM.

Consider `CN=NNc1ccc2ncnc(NCc3ccccc3)c2c1`, for which the IC50 in the assay on NIH3T3 [1] was 34.9 µM; in assay [2], 0.335 µM; in the assay on NIH3T3 [3], 50.3 µM; with A-431 it was 20 µM.

As to `Brc1cccc(Nc2ncnc3ccc(NN=NCc4ccccn4)cc23)c1`, the IC50 was 4.06 µM in the assay with NIH3T3 [1], 0.238 µM in assay [2], 30.6 µM with NIH3T3 [3] and 11.4 µM in the assay with A-431.

With `Nc1ccc2ncnc(NCc3ccccc3)c2c1`, the IC50 is 33.8 µM with NIH3T3 [1], 0.508 µM in assay [2], 96.7 µM in the assay on NIH3T3 [3] and 25 µM with A-431.

On to `Cc1cccc(Nc2ncnc3ccc(N)cc23)c1`, for which the IC50 in the assay on NIH3T3 [1] came to 7.2 µM; with NIH3T3 [3], 90 µM; with A-431 it was 65 µM.

Regarding `CN(C)/N=N/c1ccc2ncnc(N(C)c3ccccc3)c2c1`, the IC50 with NIH3T3 [1] amounted to 31.6 µM; in assay [2], 13.3 µM; in the assay on NIH3T3 [3], 47 µM; in the assay on A-431, 29.8 µM.

As to `Brc1cccc(Nc2ncnc3ccc(NN=NCc4ccccc4)cc23)c1`, the IC50 was 11.2 µM in the assay on NIH3T3 [1], 0.025 µM in assay [2], 60.2 µM in the assay with NIH3T3 [3] and 20 µM with A-431.

With `Nc1ccc2ncnc(Nc3cccc(Br)c3)c2c1`, the IC50 was 4.1 µM with NIH3T3 [1], 52.9 µM with NIH3T3 [3] and 45 µM with A-431.
